19 molecules from patent US9115101B2 (Genentech, Inc., priority 2012, dated 2015) can be followed below.

The IC50 is the concentration needed to halve the response being measured.

In the first assay the target is T1, RORc ligand binding domain (Homo sapiens, UniProt P51449).
T1 construct: host or cells: E. coli
T1 sequence (P51449 269-508 limits assumed): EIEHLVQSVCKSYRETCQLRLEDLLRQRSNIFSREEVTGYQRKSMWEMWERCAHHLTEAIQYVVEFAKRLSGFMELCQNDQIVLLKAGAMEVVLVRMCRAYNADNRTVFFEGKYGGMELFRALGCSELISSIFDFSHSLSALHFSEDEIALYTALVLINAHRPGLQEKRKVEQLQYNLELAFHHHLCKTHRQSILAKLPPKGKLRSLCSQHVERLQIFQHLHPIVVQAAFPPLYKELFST
As to the kind of experiment: In Vitro RORc Ligand Binding Assay (25-[3H]hydroxycholesterol radioligand filtration). The conditions noted are these: In Vitro RORc Ligand Binding Assay; Table 4; read-out: RORc IC50.
For `C[C@H]1CCC(c2ccccc2)S(=O)(=O)N1Cc1ccc(C(=O)N2CCN(S(C)(=O)=O)CC2)cc1` (stereo partly drawn) [Example 287, (4-Methanesulfonyl-piperazin-1-yl)-[4-((3S)-methyl-1,1-dioxo-6-phenyl-[1,2]thiazinan-2-ylmethyl)-phenyl]-methanone], the concentration for half-maximal inhibition (IC50) was found to be 203 nM. On the same count and under the same terms, in the case of `C[C@H]1CCC(c2ccccc2)S(=O)(=O)N1Cc1ccc(N2CCN3C(=O)CNC(=O)[C@H]3C2)cc1F` (stereo partly drawn) [Example 396, (R)-8-[3-Fluoro-4-((3S)-methyl-1,1-dioxo-6-phenyl-[1,2]thiazinan-2-ylmethyl)-phenyl]-hexahydro-pyrazino[1,2-a]pyrazine-1,4-dione] it was 3250 nM; in that of `C[C@H]1CCC(c2ccccc2)S(=O)(=O)N1Cc1ccc(C(=O)N2CCc3cn[nH]c3C2)cc1` (stereo partly drawn) [Example 365, [4-((3S)-Methyl-1,1-dioxo-6-phenyl-[1,2]thiazinan-2-ylmethyl)-phenyl]-(1,4,5,7-tetrahydro-pyrazolo[3,4-c]pyridin-6-yl)-methanone], 1350 nM. Still for that read-out and setting: in the case of `CC(=O)N1CCN(c2ccc(CN3[C@@H](C)CCC(c4ccccc4)S3(=O)=O)c(F)c2)CC1` (single isomer, unassigned) [Example 17] it was 16 nM; in that of `C[C@H]1CCC(c2ccccc2)S(=O)(=O)N1Cc1ccc(C(=O)N2C3CCC2C(C(N)=O)C3)cc1` (stereo partly drawn) [Example 355, 7-[4-((3S)-Methyl-1,1-dioxo-6-phenyl-[1,2]thiazinan-2-ylmethyl)-benzoyl]-7-aza-bicyclo[2.2.1]heptane-2-carboxylic acid amide], 510 nM. Same read-out and setting: as for `CC(=O)N1CCN(c2ccc(CN3[C@@H](C)COCC(c4ccccc4)S3(=O)=O)c(F)c2)CC1` (single isomer, unassigned) [Example 25], the figure is 32 nM; as for `C[C@H]1CCC(c2ccccc2)S(=O)(=O)N1Cc1ccc(NC2CCN(S(C)(=O)=O)CC2)c(F)c1` (stereo partly drawn) [Example 236, [2-Fluoro-4-((3S)-methyl-1,1-dioxo-6-phenyl-[1,2]thiazinan-2-ylmethyl)-phenyl]-(1-methanesulfonyl-piperidin-4-yl)-amine], 6 nM; as for `CC(=O)N1CCN(c2ccc(CN3[C@@H](C)CCC(c4ccc(C#N)cc4)S3(=O)=O)c(F)c2)CC1` (single isomer, unassigned) [Example 173], 2060 nM. In the case of `O=S1(=O)C(c2ccccc2)CCCCN1Cc1ccc(N2CCC(n3cnnc3)CC2)cc1F` (single isomer, unassigned) [Example 325, 2-[2-Fluoro-4-(4-[1,2,4]triazol-4-yl-piperidin-1-yl)-benzyl]-7-phenyl-[1,2]thiazepane 1,1-dioxide], the IC50 amounted to 10 nM. As to `CC(=O)N1CCN(c2ccc(CN3[C@H](C)CCC(c4ccccc4)S3(=O)=O)cc2)CC1` (single isomer, unassigned) [Example 47], the IC50 turned out to be 299 nM. Same read-out and setting: in the case of `C[C@H]1CCC(c2ccccc2)S(=O)(=O)N1Cc1ccc(N2CCC(c3cn[nH]c3)CC2)cc1F` (single isomer, unassigned) [Example 242] it was 4 nM; in that of `O=C(CO)N1CCN(c2ccc(CN3CCCCC(c4ccccc4)S3(=O)=O)cc2)CC1` (single isomer, unassigned) [Example 318, 1-{4-[4-(1,1-Dioxo-7-phenyl-[1,2]thiazepan-2-ylmethyl)-phenyl]-piperazin-1-yl}-2-hydroxy-ethanone], 1970 nM.

Turning to `C[C@H]1CCC(c2ccccc2)S(=O)(=O)N1Cc1ccc(OC2CCN(S(C)(=O)=O)CC2)cc1F` (single isomer, unassigned) [Example 32], the IC50 was 17 nM.

Consider `CC(=O)N1CCN(c2ccc(CN3[C@@H](C)CCC(c4ccccc4)S3(=O)=O)c(F)c2)C[C@H]1C` (stereo partly drawn) [Example 264, 1-{4-[3-Fluoro-4-((3S)-methyl-1,1-dioxo-6-phenyl-[1,2]thiazinan-2-ylmethyl)-phenyl]-2-methyl-piperazin-1-yl}-ethanone], for which the IC50 was 18 nM. The same measure, in the same setting: in the case of `C[C@H]1CCC(c2ccccc2)S(=O)(=O)N1Cc1ccc(N2CCC(n3ccnn3)CC2)cc1F` (single isomer, unassigned) [Example 218] it was 11 nM; in that of `C[C@H]1CCC(c2ccccc2)S(=O)(=O)N1Cc1ccc(N2CCn3cncc3C2)cc1F` (single isomer, unassigned) [Example 154], 145 nM; in that of `C[C@H]1CCC(c2ccccc2)S(=O)(=O)N1Cc1ccc(N2CCCN(C(=O)CC#N)CC2)cc1F` (single isomer, unassigned) [Example 83], 213 nM.

Still in this assay, the particulars now being: read-out: RORc IC50.
On to `CC(Oc1ccc(CN2[C@@H](C)CCC(c3ccccc3)S2(=O)=O)cc1)C1CCOCC1` (stereo partly drawn) [Example 437, (3S)-Methyl-6-phenyl-2-{4-[1-(tetrahydro-pyran-4-yl)-ethoxy]-benzyl}-[1,2]thiazinane 1,1-dioxide], for which the IC50 turned out to be 48 nM.

With `CC1CN(S(C)(=O)=O)CCC1Nc1ccc(CN2[C@@H](C)CCC(c3ccccc3)S2(=O)=O)c(F)c1` (stereo partly drawn) [Example 453, [3-Fluoro-4-((3S)-methyl-1,1-dioxo-6-phenyl-[1,2]thiazinan-2-ylmethyl)-phenyl]-(1-methanesulfonyl-3-methyl-piperidin-4-yl)-amine], the IC50 came to 9 nM.
